These compounds were tested against Polθ theta (1-899) (hPolQ) (Homo sapiens (Human), UniProt O75417) (assay: Biological Assay 1: Polθ ATPase activity, NADH oxidation-coupled enzymatic assay (10 nM enzyme, 30 min)). Settings: Polθ (1-899) 10 nM, 100 μM ATP, 300 nM dT50 ssDNA; Examples 1 to 268; read-out: ATPase NADH coupling:Standard Screening:hPolQ IC50.
Polθ theta (1-899) (hPolQ), sequence (O75417 1-899): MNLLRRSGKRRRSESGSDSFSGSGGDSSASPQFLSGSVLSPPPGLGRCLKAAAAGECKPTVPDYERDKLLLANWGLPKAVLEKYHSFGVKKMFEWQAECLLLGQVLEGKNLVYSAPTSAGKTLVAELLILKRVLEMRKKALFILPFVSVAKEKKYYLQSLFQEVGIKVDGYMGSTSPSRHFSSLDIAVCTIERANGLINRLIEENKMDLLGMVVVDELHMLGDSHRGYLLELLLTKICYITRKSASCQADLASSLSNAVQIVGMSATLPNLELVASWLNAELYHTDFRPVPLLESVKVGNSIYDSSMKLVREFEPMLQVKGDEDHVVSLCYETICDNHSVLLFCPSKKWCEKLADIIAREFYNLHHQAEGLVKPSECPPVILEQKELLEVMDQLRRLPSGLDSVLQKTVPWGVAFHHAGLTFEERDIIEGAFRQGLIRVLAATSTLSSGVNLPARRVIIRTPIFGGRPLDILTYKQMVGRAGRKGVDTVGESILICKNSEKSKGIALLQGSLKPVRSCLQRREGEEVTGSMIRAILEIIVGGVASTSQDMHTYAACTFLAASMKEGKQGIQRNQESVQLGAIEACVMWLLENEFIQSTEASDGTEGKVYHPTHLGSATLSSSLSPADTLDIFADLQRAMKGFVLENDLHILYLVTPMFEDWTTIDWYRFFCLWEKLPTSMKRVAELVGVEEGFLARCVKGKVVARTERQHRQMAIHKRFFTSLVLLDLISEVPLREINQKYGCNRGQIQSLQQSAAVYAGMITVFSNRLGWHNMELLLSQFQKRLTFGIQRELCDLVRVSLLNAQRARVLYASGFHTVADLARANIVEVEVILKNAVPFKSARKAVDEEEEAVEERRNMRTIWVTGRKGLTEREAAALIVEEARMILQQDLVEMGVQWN
Type: biochemical
Protocol: The ability of the compounds of Formula (I), (II), (III), (IV), or Table 1 (Examples 1 to Example 268) to inhibit ATPase activity of Polθ theta (1-899) was determined using the assay described below.
Polθ Theta ATPase activity was determined by measuring the rate of ATP turn over in a NADH oxidation-coupled enzymatic assay. 10-point dilution series of compounds were used in a 384 well format for the inhibition assays. Polθ theta (1-899) (10 nM) in assay buffer (20 mM Tris HCl (pH 7.80), 80 mM KCl, 10 mM MgCl2, 1 mM DTT, 0.01% BSA, 0.01% Tween, 5% glycerol) was transferred to the test wells (20 μL), except the low control wells (20 μL of assay buffer was added to the low control wells). The plate was then incubated at room temperature for 15 min. An equal volume (20 μL) of 100 μM ATP, 300 nM dT50 (single-stranded DNA (ssDNA) containing 50 thymine bases), 300 μM NADH, 6 mM PEP, 10 U/mL lactate dehydrogenase and U/mL pyruvate kinase in assay buffer was added to all the test wells. The plate was then centrifuged at 1000 rpm for 1 min. The reaction was monitored for 30 min by measuring absorbance (λ=340 nm) in a Tecan Spark multimode plate reader every minute. The high control (DMSO with enzyme) with low absorbance intensity represents no inhibition of ATPase reaction while the low control (DMSO with buffer) with high absorbance intensity represents full inhibition of ATPase activity. Slope of the reaction progress curves were used to calculate the rate of ATP hydrolysis. The rates were used to determine the percent inhibition using a four-parameter inhibition model to generate IC50, Hill slope and max inhibition.
For `Cc1cc(-c2cc(Cl)ncc2OC(F)F)c(C(=O)Nc2nnc(OC[C@H]3CCOC3)s2)cn1` (single isomer, unassigned) [Example 257], the IC50 was ≤ 200 nM. In the case of `Cc1cc(-c2cc(Cl)ncc2OC(F)F)c(C(=O)Nc2nnc(OC[C@@H]3CCOC3)s2)cn1` (single isomer, unassigned) [Example 258], the IC50 is reported as ≤ 200 nM. For `COc1cnc(Cl)cc1-c1cc(C)ncc1C(=O)Nc1nnc(OC[C@@]2(F)CCOC2)s1` (single isomer, unassigned) [Example 263], the IC50 was ≤ 200 nM. With `COc1cnc(Cl)cc1-c1cc(C)ncc1C(=O)Nc1nnc(OC[C@]2(F)CCOC2)s1` (single isomer, unassigned) [Example 264] the IC50 was ≤ 200 nM. `COc1cnc(Cl)cc1-c1cc(C)ncc1C(=O)Nc1nnc(OC[C@@H]2COC[C@@H]2C)s1` (single isomer, unassigned) [Example 265] was tested, and the IC50 was ≤ 200 nM. With `COc1cnc(Cl)cc1-c1cc(C)ncc1C(=O)Nc1nnc(OC[C@@H]2COC[C@H]2C)s1` (single isomer, unassigned) [Example 266] the IC50 was ≤ 200 nM. For `COc1cnc(Cl)cc1-c1cc(C)ncc1C(=O)Nc1nnc(OC[C@H]2COC[C@H]2C)s1` (single isomer, unassigned) [Example 267], the IC50 was ≤ 200 nM. For `COc1cnc(Cl)cc1-c1cc(C)ncc1C(=O)Nc1nnc(OC[C@H]2COC[C@@H]2C)s1` (single isomer, unassigned) [Example 268], the IC50 was ≤ 200 nM. `COc1cnc(Cl)cc1-c1cc(C)ncc1C(=O)Nc1nnc(OCC2CCOC2)s1` (stereo in doubt) [Example 170, (R)-2′-chloro-5′-methoxy-6-methyl-N-(5-((tetrahydrofuran-3-yl)methoxy)-1,3,4-thiadiazol-2-yl)-(4,4′-bipyridine)-3-carboxamide] was tested, and the IC50 was ≤ 200 nM. For `COc1cnc(Cl)cc1-c1cc(C)ncc1C(=O)Nc1nnc(OCC2CCOC2)s1` (stereo in doubt) [Example 171, (S)-2′-chloro-5′-methoxy-6-methyl-N-(5-((tetrahydrofuran-3-yl)methoxy)-1,3,4-thiadiazol-2-yl)-(4,4′-bipyridine)-3-carboxamide], the IC50 was ≤ 200 nM. For `COc1cnc(Cl)c(F)c1-c1cc(C)ncc1C(=O)Nc1nnc(OCC2CCOC2)s1` (stereo in doubt) [Example 183, 2′-chloro-3′-fluoro-5′-methoxy-6-methyl-N-(5-(((R)-tetrahydrofuran-3-yl)methoxy)-1,3,4-thiadiazol-2-yl)-(4,4′-bipyridine)-3-carboxamide], the IC50 was ≤ 200 nM. In the case of `COc1cnc(Cl)c(F)c1-c1cc(C)ncc1C(=O)Nc1nnc(OCC2CCOC2)s1` (stereo in doubt) [Example 184, 2′-chloro-3′-fluoro-5′-methoxy-6-methyl-N-(5-(((S)-tetrahydrofuran-3-yl)methoxy)-1,3,4-thiadiazol-2-yl)-(4,4′-bipyridine)-3-carboxamide], the IC50 is reported as ≤ 200 nM. `COc1cnc(Cl)cc1-c1cc(C)ncc1C(=O)Nc1nnc(OCC2COC(C)(C)C2)s1` (stereo in doubt) [Example 188, (R)-2′-chloro-N-(5-((5,5-dimethyltetrahydrofuran-3-yl)methoxy)-1,3,4-thiadiazol-2-yl)-5′-methoxy-6-methyl-(4,4′-bipyridine)-3-carboxamide] was tested, and the IC50 was ≤ 200 nM. For `COc1cnc(Cl)cc1-c1cc(C)ncc1C(=O)Nc1nnc(OCC2COC(C)(C)C2)s1` (stereo in doubt) [Example 189, (S)-2′-chloro-N-(5-((5,5-dimethyltetrahydrofuran-3-yl)methoxy)-1,3,4-thiadiazol-2-yl)-5′-methoxy-6-methyl-(4,4′-bipyridine)-3-carboxamide], the IC50 was ≤ 200 nM. `COc1cnc(Cl)cc1-c1cc(C)ncc1C(=O)Nc1nnc(OC[C@H]2C[C@@H]2F)s1` (stereo in doubt) [Example 207, 2′-chloro-N-(5-(((1R,2S)-2-fluorocyclopropyl)methoxy)-1,3,4-thiadiazol-2-yl)-5′-methoxy-6-methyl-(4,4′-bipyridine)-3-carboxamide] was tested, and the IC50 was ≤ 200 nM.

Source: patent US20250325552A1, “SUBSTITUTED THIADIAZOLYL DERIVATIVES AS DNA POLYMERASE THETA INHIBITORS” (IDEAYA Biosciences, Inc., priority 2020, published 2025)
